Tests used:
Type in all cases: in vivo
[1] = tested on: Erysiphe graminis; experiment: Erysiphe graminis protective spray test on barley seedlings (greenhouse); conditions: barley seedlings HERTA, infected 2 days after spraying, read 7 days after infection vs infected untreated control
Protocol: 30-40 Gerstenkeimlinge der Sorte HERTA (verteilt auf 2 Töpfe mit 7 cm Durchmesser) wurden jeweils im Einblattstadium mit einer wässerigen Dispersion der Testsubstanz (wie allgemein üblich aufbereitet als Spritzpulver) allseitig gründlich besprüht und anschliessend bei 22-26°C, 80% rel. Luftfeuchtigkeit und einer Photoperiode von 16 Stunden im Gewächshaus weiterkultiviert. Die Infektion erfolgte 2 Tage nach der Behandlung durch Bestäuben der Versuchspflanzen mit Kon dien von Erysiphe graminis. 7 Tage nach der Infektion wurde ::ie durch Erysiphe graminis befallene Blattfläche in % gegenüber derjenigen der infizierten, nicht behandelten Kontrolle ermittelt. Die Resultate sind in Tabelle I zusammengefasst.

[2] = tested on: Venturia inaequalis; experiment: Venturia inaequalis protective spray test on apple seedlings; conditions: infected 2 days after spraying, read on day 13 after infection vs infected untreated control
Protocol: 3 Apfelpflänzchen (verteilt auf 3 Töpfe mit 5 cm Durchmesser) aus Samen der Sorte GOLDIN DELICIOUS wurden im 4- bis 5-Blattstadium mit einer wässerigen Dispersion der Testsubstanz (wie allgemein üblich aufbereitet als Spritzpulver) allseitig gründlich besprüht. Die behandelten Pflanzen wurden anschliessend während 2 Tagen bei 17°C, 70-80%rel. Luftfeuchtigkeit und einer Photoperiode von 14 Stunden weiterkultiviert. Danach erfolgte die Infektion der Apfelsämlinge durch Besprühen mit in dest. Wasser suspendierten Konidien (200'000 Konidien/ml) von Venturia inaequalis. Nach der Infektion wurden die Pflanzen im Dunkeln während 48 Stunden bei 16-18°C und einer rel. Luftfeuchtigkeit von über 90% inkubiert und anschliessend in ein schattiertes Gewächshaus mit einer Temperatur von 22-26 °C und einer rel. Luftfeuchtigkeit von über 80% überführt. Am 13. Tage nach der Infektion erfolgte die Ermittlung der durch Venturia inaequalis befallenen Blattfläche gegenüber der infizierten, nicht behandelten Kontrolle. Die Resultate sind in Tabelle II zusammengefasst.

[3] = tested on: Puccinia coronata; experiment: Puccinia coronata protective spray test on oat seedlings; conditions: oat seedlings FLAEMINGSKRONE, infected 2 days after spraying, read on day 9 after infection vs infected untreated control
Protocol: 30-40 Haferkeimlinge der Sorte FLAEMINGSKRONE (verteilt auf 2 Töpfe mit 7 cm Durchmesser) wurden jeweils im Einblattstadium mit einer wässerigen Dispersion der Testsubstanz (wie allgemein üblich aufbereitet als Spritzpulver) allseitig gründlich besprüht und anschliessend in einer Klimakabine bei 17°C. 70-80% rel. Luftfeuchtigkeit und einer Photoperiode von 16 Stunden weiterkultiviert. Nach 2 Tagen erfolgte die Infektion der Versuchspflanzen durch Besprühen mit in dest. Wasser suspendierten Uredosporen (300'000 Sporen/ml) vor. Puccinia coronata. Danach wurden die Pflanzen während 24 Stunden bei 20°C und einer Luftfeuchtigkeit von über 90W im Dunkeln inkubiert und anschliessend in ein Gewächshaus mit einer Temperatur von 22-26 °C, einer rel. Luftfeuchtigkeit von 70% und einer Photoperiode von 18 Stunden übe führt. Am 9. Tage nach der Infektion wurde die durch Pucrinia coronata befallene Blattfläche in % gegenüber der infizierten, nicht behandelten Kontrolle ermittelt. Die ResLltate sind in Tabelle I zusammengefasst.

SMILES | Wirkung (in %) Erysiphe graminis ([1]; 5 mg/l Spritzbrühe) [%] | Wirkung (in %) Erysiphe graminis ([1]; 16 mg/l Spritzbrühe) [%] | Wirkung (in %) Erysiphe graminis ([1]; 50 mg/l Spritzbrühe) [%] | Wirkung (in %) Erysiphe graminis ([1]; 160 mg/l Spritzbrühe) [%] | Wirkung (in %) Erysiphe graminis ([1]; 500 mg/l Spritzbrühe) [%] | Wirkung (in %) Venturia inaequalis ([2]; 5 mg/l Spritzbrühe) [%] | Wirkung (in %) Venturia inaequalis ([2]; 16 mg/l Spritzbrühe) [%] | Wirkung (in %) Venturia inaequalis ([2]; 50 mg/l Spritzbrühe) [%] | Wirkung (in %) Venturia inaequalis ([2]; 160 mg/l Spritzbrühe) [%] | Wirkung (in %) Venturia inaequalis ([2]; 500 mg/l Spritzbrühe) [%] | Wirkung (in %) Puccinia coronata ([3]; 5 mg/l Spritzbrühe) [%] | Wirkung (in %) Puccinia coronata ([3]; 16 mg/l Spritzbrühe) [%] | Wirkung (in %) Puccinia coronata ([3]; 50 mg/l Spritzbrühe) [%] | Wirkung (in %) Puccinia coronata ([3]; 160 mg/l Spritzbrühe) [%] | Wirkung (in %) Puccinia coronata ([3]; 500 mg/l Spritzbrühe) [%]
CC(CN1CCCCC1)C(O)c1ccc(C(C)(C)C)cc1 (stereo not drawn) [α-(p-tert.-Butyl-phenyl)-β-methyl-1-piperidin-propanol] | 75 | 80 | 87 | 98 | 98 | 10 | 20 | 43 | 93 | 100 | 10 | 30 | 80 | 100 | 100
CC(Cc1ccc(C(C)(C)C)cc1)CN1CCC2(CC1)OCCO2 (stereo not shown) [1-[3-(p-tert.-Butyl-phenyl)-2-methyl-propyl]-4,4-äthylendioxy-piperidin] | 30 | 50 | 70 | 85 | – | – | – | – | – | 20 | 90 | 95 | 100 | 100 | 100
CC(Cc1ccc(C(C)(C)CCl)cc1)CN1CCCCC1 (stereo not shown) [1-/3-[p-(2-Chlor-1,1-dimethyl-äthyl)-phenyl]-2-methyl-propyl/-piperidin] | 45 | 70 | 80 | 97 | 100 | 0 | 20 | 30 | 90 | 95 | 30 | 65 | 85 | 100 | 100
CC(Cc1ccc(C(C)(C)C)cc1)CN1CCC(=O)CC1 (stereo not shown) [1-[3-(p-tert.-Butyl-phenyl)-2-methyl-propyl]-4-piperidon] | 75 | 80 | 93 | 100 | – | 0 | 0 | 0 | 10 | 90 | 0 | 0 | 0 | 0 | 98
CC(CN1CCC2(CC1)OCCO2)=C(C)c1ccc(C(C)(C)C)cc1 [1-[3-(p-tert.-Butyl-phenyl)-2,3-dimethyl-2-propenyl]-4,4-äthylendioxy-piperidin] | 80 | 98 | 98 | 100 | 100 | 0 | 0 | 20 | 37 | 83 | 98 | 100 | 100 | 100 | 100
CCC(C)(C)c1ccc(CC(C)CN2CCC3(CC2)OCCO3)cc1 (stereo not shown) [1-[3-(p-tert.-Amyl-phenyl)-2-methyl-propyl]-4,4-äthylendioxy-piperidin] | 75 | 85 | 90 | 100 | 100 | 0 | 40 | 63 | 97 | 98 | 10 | 30 | 90 | 100 | 100
CC(Cc1ccc(C(C)(C)CCl)cc1)CN1CC(C)OC(C)C1 (stereo not shown) [4-/3-[p-(2-Chlor-1,1-dimethyl-äthyl)-phenyl]-2-methyl-propyl/-2,6-dimethyl-morpholin] | 60 | 75 | 90 | 100 | 100 | 13 | 67 | 93 | 95 | 95 | 0 | 0 | 20 | 100 | –
CCC(C)(C)c1ccc(C(C)=C(C)CN2CCC3(CC2)OCCO3)cc1 [1-[3-(p-tert.-Amyl-phenyl)-2,3-dimethyl-2-propenyl]-4,4-äthylendioxy-piperidin] | 75 | 90 | 90 | 98 | – | 0 | 0 | 10 | 10 | 95 | 20 | 98 | 100 | 100 | 100
CC(CN1CCC(=O)CC1)=C(C)c1ccc(C(C)(C)C)cc1 [1-[3-(p-tert.-Butyl-phenyl)-2,3-dimethyl-2-propenyl]-4-piperidon] | 0 | 60 | 100 | 100 | 100 | 0 | 10 | 20 | 37 | 83 | 0 | 25 | 100 | 100 | 100
CC(Cc1ccc(C(C)(C)CCl)cc1)CN1CC(C)CC(C)C1 (stereo not shown) [1-/3-[p-(2-Chlor-1,1-dimethyl-äthyl)-phenyl]-2-methyl-propyl/-3,5-dimethyl-piperidin] | 85 | 92 | 100 | 100 | 100 | 20 | 33 | 77 | 87 | 99 | 40 | 98 | 100 | 100 | 100

Source: patent publication EP0005541A2, “Substituted piperidine, morpholine or piperidone derivatives, fungicides containing these compounds, process for their preparation and their use, and the use of these compounds as fungicides” (F. HOFFMANN-LA ROCHE & CO. Aktiengesellschaft, priority 1978, dated 1979)
